The numbers were not newly measured in publication PMC8391575, “Identification of Novel Cathepsin B Inhibitors with Implications in Alzheimer’s Disease: Computational Refining and Biochemical Evaluation” (Cells, 2021), which cites them from elsewhere.

Where two headings read alike, the source gives them in different places. Where only a bound is given, the exact number is not on record here.

The series relates to cathepsin B. The settings on record: cited from earlier work.
Where [1] appears, read: Table S1, read-out: IC50: half maximal inhibitory concentration.
Where [2] appears, read: class of the experimental IC50, read-out: Activity Scale Experimental.

Regarding `CC(=O)N[C@@H](CC(C)C)C(=O)N[C@@H](CC(C)C)C(=O)N[C@H](C=O)CCCN=C(N)N` [Compound N19, 2-acetamido-N-[1-[[5-(diaminomethylideneamino)-1-oxopentan-2-yl]amino]-4-methyl-1-oxopentan-2-yl]-4-methylpentanamide; 2,2,2-trifluoroacetic acid], the “pIC50 Experimental” value (Table 4) is 6.36. Further, the IC50 runs as follows: under setting [1], 440 nM; under setting [2], 300 to 2500 nM.
In the case of `COc1ccc(S(=O)(=O)n2nc(OC(=O)c3cccs3)cc2N)cc1` [Compound S31, [5-amino-1-(4-methoxyphenyl)sulfonylpyrazol-3-yl] thiophene-2-carboxylate], the “pIC50 Experimental” value (Table 4) is listed as 6.16. Also, under setting [2], the IC50 is 300 to 2500 nM.
Regarding `COc1nc(N(C#N)CC(N)=O)nc(N2CCCC2)n1` [Compound S24, 2-[cyano-(4-methoxy-6-pyrrolidin-1-yl-1,3,5-triazin-2-yl)amino]acetamide], for the setting “Table 4”, the “pIC50 Experimental” value is listed as 4.85. The IC50 under setting [2] was more than 2500 nM.
Consider `Cc1c2ccncc2c(C)c2c1[nH]c1ccccc12` [Compound N12, 5,11-dimethyl-6H-pyrido[4,3-b]carbazole], for which, under “Table 4”, the “pIC50 Experimental” value is on record as 7.99. Moreover, under setting [2], the IC50 was less than 300 nM.
`Cn1ncnc2c(=O)n(C)c(=O)nc1-2` [Compound N22, 1,6-dimethylpyrimido[5,4-e][1,2,4]triazine-5,7-dione]: where the note is “Table 4”, the “pIC50 Experimental” value is 7.34. In addition, under setting [2], the IC50 was less than 300 nM.
For the molecule `CCn1nc(-c2ccccc2)nc2c(=O)n(C)c(=O)nc1-2` [Compound S9, 1-ethyl-6-methyl-3-phenylpyrimido[5,4-e][1,2,4]triazine-5,7-dione], the “pIC50 Experimental” value was 7.15. For the same molecule, the IC50 (read-out: Activity Scale Experimental) is less than 300 nM.
As for `CCn1nc(-c2cccs2)nc2c(=O)n(C)c(=O)nc1-2` [Compound S13, 1-Ethyl-6-methyl-3-thiophen-2-yl-1H-pyrimido[5,4-e][1,2,4]triazine-5,7-dione], the “pIC50 Experimental” value (Table 4) is reported as 7.14. In addition, the IC50 under setting [2] is less than 300 nM.
`CCOC(=O)[C@H]1O[C@@H]1C(=O)N[C@H](C(=O)N1CCC[C@H]1C(=O)O)[C@@H](C)CC` [Compound S2, (2S)-1-[(2S,3S)-2-[[(2S,3S)-3-ethoxycarbonyloxirane-2-carbonyl]amino]-3-methylpentanoyl]pyrrolidine-2-carboxylic acid]: the “pIC50 Experimental” value (Table 4) is 8.55. For the same molecule, the IC50 under setting [2] was less than 300 nM.
As to `COc1ccc(S(=O)(=O)n2nc(OC(=O)c3ccc(C)cc3)cc2N)cc1` [Compound S8], the “pIC50 Experimental” value (Table 4) is recorded as 4.91. Further, the IC50 under setting [2] was more than 2500 nM.
`COc1ccccc1/N=C/c1nc(-c2ccccc2)oc1OC(C)=O` [Compound S20, [4-[(2-methoxyphenyl)iminomethyl]-2-phenyl-1,3-oxazol-5-yl] acetate]: the “pIC50 Experimental” value (Table 4) is 5.05. Also, the IC50 under setting [2] was more than 2500 nM.
Turning to `CC(C)C[C@H](NC(=O)[C@H]1O[C@@H]1C(=O)O)C(=O)NCCCCN=C(N)N` [Compound N13, (2S,3S)-3-[[(2S)-1-[4-(diaminomethylideneamino)butylamino]-4-methyl-1-oxopentan-2-yl]carbamoyl]oxirane-2-carboxylic acid], the “pIC50 Experimental” value (Table 4) was 8.28. For the same molecule, the IC50 under setting [2] is less than 300 nM.
As to `NCCCCNC(=O)[C@H](Cc1ccccc1)NC(=O)[C@H]1O[C@@H]1C(=O)O` [Compound N6, (2S,3S)-3-({(2S)-1-[(4-Aminobutyl)amino]-1-oxo-3-phenyl-2-propanyl}carbamoyl)-2-oxiranecarboxylic acid], the “pIC50 Experimental” value (Table 4) is listed as 6.58. Further, the IC50 by setting is: under setting [1], 260 nM; under setting [2], less than 300 nM.
Take `CCC(C)[C@@H](NC(=O)OC(C)(C)C)c1nnc(S(=O)(=O)Cc2cccc(C)c2)o1` (stereo partly drawn) [Compound S23, tert-butyl N-[(1R)-2-methyl-1-[5-[(3-methylphenyl)methylsulfonyl]-1,3,4-oxadiazol-2-yl]butyl]carbamate]: for the setting “Table 4”, the “pIC50 Experimental” value is recorded as 5.68. The IC50 under setting [2] is 300 to 2500 nM.
